Data as given in patent US7736677B2 (Metaproteomics, LLC, priority 2001, dated 2010).
Marks after values point to notes of the source that are not given here. Blank lines part the entries; values can stand above or below the molecule they belong to.

Experiments:
[1] = test system: adiponectin; test: Adiponectin secretion in LPS/3T3-L1 adipocytes; assay type: cell-based, murine; conditions: for induction of adiponectin secretion: any of the doses tested; for Concentration of maximum stimulation of adiponectin secretion: LPS-treated D5 3T3-L1 adipocytes
[2] = test system: adiponectin; test: Adiponectin secretion from TNFα-treated 3T3-L1 adipocytes; assay type: cell-based, murine
[3] = test system: IL-6; test: IL-6 secretion in LPS/3T3-L1 adipocytes; assay type: cell-based, murine; conditions: at the dose providing maximum inhibition; for IL-6 Index: indexed to LPS control
[4] = test system: IL-6; test: IL-6 secretion from TNFα-treated 3T3-L1 adipocytes; assay type: cell-based, murine; conditions: 10 ng TNFα/ml
[5] = target: PKBγ (Homo sapiens, UniProt Q9Y243); test: KinaseProfiler Assay; assay type: biochemical; conditions: 5 ug/ml, read-out: effect (as % of Control)
Sequence of PKBγ (Q9Y243 whole entry): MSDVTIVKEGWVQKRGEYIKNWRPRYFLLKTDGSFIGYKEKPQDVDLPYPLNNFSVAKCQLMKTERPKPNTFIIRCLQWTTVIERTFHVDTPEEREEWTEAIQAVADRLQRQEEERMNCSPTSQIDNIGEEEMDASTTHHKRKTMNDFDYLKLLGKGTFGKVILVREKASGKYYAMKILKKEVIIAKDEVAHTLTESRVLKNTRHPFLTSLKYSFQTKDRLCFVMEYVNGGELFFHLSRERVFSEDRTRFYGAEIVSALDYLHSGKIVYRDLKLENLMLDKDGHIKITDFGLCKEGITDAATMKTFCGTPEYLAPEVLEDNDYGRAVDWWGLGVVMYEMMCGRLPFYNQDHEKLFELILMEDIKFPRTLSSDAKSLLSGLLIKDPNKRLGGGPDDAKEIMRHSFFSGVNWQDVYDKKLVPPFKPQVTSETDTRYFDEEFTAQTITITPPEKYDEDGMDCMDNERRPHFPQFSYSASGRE

[6] = target: PKCβII (Homo sapiens, UniProt P05771); test: KinaseProfiler Assay; assay type: biochemical; conditions: 5 ug/ml, read-out: effect (as % of Control)
Sequence of PKCβII (P05771 1-673 isoform P05771-2): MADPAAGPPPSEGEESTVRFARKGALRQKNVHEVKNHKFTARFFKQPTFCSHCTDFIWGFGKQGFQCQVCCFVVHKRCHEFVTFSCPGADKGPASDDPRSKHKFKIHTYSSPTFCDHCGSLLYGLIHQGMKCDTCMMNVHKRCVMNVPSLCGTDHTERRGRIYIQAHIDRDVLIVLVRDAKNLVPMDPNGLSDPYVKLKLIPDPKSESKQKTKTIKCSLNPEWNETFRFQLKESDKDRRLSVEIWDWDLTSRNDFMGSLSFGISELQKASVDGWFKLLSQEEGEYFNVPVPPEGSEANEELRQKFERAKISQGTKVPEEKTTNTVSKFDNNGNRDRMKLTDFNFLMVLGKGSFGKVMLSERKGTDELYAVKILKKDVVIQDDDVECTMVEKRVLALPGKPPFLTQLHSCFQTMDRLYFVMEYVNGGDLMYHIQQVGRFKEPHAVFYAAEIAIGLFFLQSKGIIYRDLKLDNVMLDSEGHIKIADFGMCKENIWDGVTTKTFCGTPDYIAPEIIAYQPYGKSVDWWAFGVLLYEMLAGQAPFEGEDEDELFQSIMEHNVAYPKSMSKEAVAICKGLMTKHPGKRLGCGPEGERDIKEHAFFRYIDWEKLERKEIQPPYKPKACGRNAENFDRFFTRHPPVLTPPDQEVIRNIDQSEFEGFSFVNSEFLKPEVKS

[7] = test system: IL-6; test: IL-6 secretion from insulin-resistant 3T3-L1 adipocytes; assay type: cell-based, murine; conditions: high insulin
[8] = test system: adiponectin; test: Adiponectin secretion from insulin-resistant 3T3-L1 adipocytes; assay type: cell-based, murine
[9] = test system: DBA/J mice; test: Collagen induced rheumatoid arthritis murine model; assay type: in vivo, mouse
[10] = test system: db/db mice; assay type: in vivo, mouse; conditions: three consecutive days
[11] = at the concentration of maximum stimulation

Structure (SMILES): CC(=O)Oc1ccccc1C(=O)O [Aspirin, aspirin]
- induction of adiponectin secretion [1]: failed to induce adiponectin secretion

Structure (SMILES): CC(C)Cc1ccc(C(C)C(=O)O)cc1 (centres unmarked) [ibuprofen]
- % Stimulation of adiponectin secretion (maximum) [1, 11]: 22%

Structure (SMILES): CCc1ccc(CCOc2ccc(CC3SC(=O)NC3=O)cc2)nc1 (centres unmarked) [Pioglitazone, pioglitazone]
- Concentration of maximum adiponectin secretion over four doses ([2]; 10 ng TNFα/ml, Example 17): 1.25 µg/mL
- Adiponectin Index, Observed ([2]; 1.0 μg/ml, indexed to TNFα control (Table 26)): 1.80
- IL-6 Index [3]: 0.37*
- Concentration of maximum stimulation of adiponectin secretion [1]: 1.25 µg/mL
- % Stimulation of adiponectin secretion (maximum) [1, 11]: 12%

Structure (SMILES): COc1ccc2c(c1)c(CC(=O)O)c(C)n2C(=O)c1ccc(Cl)cc1 [Indomethacin, indomethacin]
- IL-6 secretion in the presence of TNFα [4]: no anti-inflammatory effect
- % Stimulation of adiponectin secretion (maximum) [1, 11]: 9%

Structure (SMILES): O=C(O)c1ccccc1O [salicylic acid]
- % Inhibition of IL-6 secretion (maximum) [3]: 48* %
- IL-6 Index [3]: 0.52*
- induction of adiponectin secretion [1]: failed to induce adiponectin secretion
- Adiponectin Index ([1]; at the concentration of maximum stimulation, indexed to LPS control): 0.96

- remaining activity at 5 µg/mL [5]: 104%
- remaining activity at 5 µg/mL [6]: 108%
Structure (SMILES): COc1cc(O)c(CC=C(C)C)c(O)c1C(=O)/C=C/c1ccc(O)cc1 [Xanthohumol, xanthohumol]
- IL-6 secretion [7]: Significant decreases in IL-6 secretion

Structure (SMILES): CC(C)CCC1=C(O)C(C(=O)C(C)C)=C(O)C(CCC(C)C)(CCC(C)C)C1=O [Hexahydro colupulone, hexahydrocolupulone]
- Test Material at Half Maximal Secretion ([8]; slope of Hofstee plots): 3.2 µg/mL

Structure (SMILES): C[C@]12C=CC(=O)C=C1CC[C@@H]1[C@@H]2[C@@H](O)C[C@@]2(C)[C@H]1CC[C@]2(O)C(=O)CO [prednisolone]
- arthritic index ([9]; 10 mg/kg, days 30-42): Significant reductions
- serum IL-6 levels ([9]; mouse, in vivo): reached a statistical significance

Structure (SMILES): CN(C)C(=N)N=C(N)N [metformin]
- serum glucose relative to the controls [10]: decreased

Structure (SMILES): Cc1c(C)c2c(c(C)c1O)CCC(C)(COc1ccc(CC3SC(=O)NC3=O)cc1)O2 (centres unmarked) [Troglitazone, troglitazone]
- Adiponectin/IL-6 ([8]; 5.0 μg/ml, ratio of adiponectin index to IL-6 index (Table 21)): 1.12
- Concentration of maximum stimulation of adiponectin secretion [1]: 0.625 µg/mL
- % Stimulation of adiponectin secretion (maximum) [1, 11]: 15%
